In this test the target is T1, RING1B-BMI1 (Homo sapiens, UniProt Q99496).
T1 sequence (Q99496 1-336): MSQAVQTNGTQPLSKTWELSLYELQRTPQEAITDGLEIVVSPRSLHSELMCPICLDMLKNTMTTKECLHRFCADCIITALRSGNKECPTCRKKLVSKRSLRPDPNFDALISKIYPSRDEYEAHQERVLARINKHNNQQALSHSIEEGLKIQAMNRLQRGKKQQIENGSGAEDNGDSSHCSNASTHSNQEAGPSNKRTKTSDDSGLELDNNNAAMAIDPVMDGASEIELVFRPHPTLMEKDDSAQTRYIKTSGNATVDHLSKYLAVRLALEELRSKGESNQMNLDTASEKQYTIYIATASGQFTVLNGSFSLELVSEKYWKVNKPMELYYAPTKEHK
T1 sequence (P35226 1-326 partner): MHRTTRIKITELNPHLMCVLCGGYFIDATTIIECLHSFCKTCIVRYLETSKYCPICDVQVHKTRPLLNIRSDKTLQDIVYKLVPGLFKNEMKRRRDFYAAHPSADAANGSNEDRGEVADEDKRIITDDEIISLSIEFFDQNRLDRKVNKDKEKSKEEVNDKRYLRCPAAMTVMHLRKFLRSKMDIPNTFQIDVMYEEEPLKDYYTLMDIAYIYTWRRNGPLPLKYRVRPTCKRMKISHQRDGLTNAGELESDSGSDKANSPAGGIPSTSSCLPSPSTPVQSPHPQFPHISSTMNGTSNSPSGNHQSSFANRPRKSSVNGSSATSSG
Nature of the test: KD classes of Table A (direct binding to Ring1B-Bmi1). The following applies: class given in Table A.

As a reminder, the Kd is a measure of binding affinity in units of concentration. A high value points to lower affinity. Consider `CC(C)c1c(-c2cc(F)cc3[nH]ccc23)[nH]c(C(=O)O)c1-c1cccc2nc(NS(C)(=O)=O)sc12` [compound 232], for which the Kd was less than 20 µM.
`CC(C)c1c(-c2cc(F)cc3[nH]ccc23)[nH]c(C(=O)O)c1-c1ccnc2[nH]c(-c3nccs3)cc12` [compound 233] returned a Kd of less than 20 µM.
The result for `CC(C)c1c(-c2cc(F)cc3[nH]ccc23)[nH]c(C(=O)O)c1-c1cc(OC2CCCC2)cc2[nH]ccc12` [compound 234] reads less than 20 µM; that for `CC(C)c1c(-c2cc(F)cc3[nH]ccc23)[nH]c(C(=O)O)c1-c1cc(OC2CCC2)cc2[nH]ccc12` [compound 235], less than 20 µM.
With `CC(C)c1c(-c2cc(F)cc3[nH]ccc23)[nH]c(C(=O)O)c1-c1cc(OC2COC2)cc2[nH]ccc12` [compound 236], the dissociation constant (Kd) was less than 20 µM.
The result for `COCc1ccc2[nH]ccc2c1-c1c(C(=O)O)[nH]c(-c2cc(F)cc3[nH]ccc23)c1C(C)C` [compound 237] reads less than 20 µM.
In the case of `CSCc1ccc2[nH]ccc2c1-c1c(C(=O)O)[nH]c(-c2cc(F)cc3[nH]ccc23)c1C(C)C` [compound 238], the Kd was less than 20 µM.
On to `CNCc1ccc2[nH]ccc2c1-c1c(C(=O)O)[nH]c(-c2cc(F)cc3[nH]ccc23)c1C(C)C` [compound 239], for which the Kd was less than 20 µM.
On to `CCNc1ccc2[nH]ccc2c1-c1c(C(=O)O)[nH]c(-c2cc(F)cc3[nH]ccc23)c1C(C)C` [compound 240], for which the Kd is less than 20 µM.
`Cc1ccc2[nH]ccc2c1-c1c(C(=O)O)[nH]c(-c2cc(F)cc3[nH]ccc23)c1C(C)C` [compound 241]: the Kd was less than 20 µM.
The compound `CCc1ccc2[nH]ccc2c1-c1c(C(=O)O)[nH]c(-c2cc(F)cc3[nH]ccc23)c1C(C)C` [compound 242] came in with a Kd of less than 20 µM.
Compound `CC(C)c1c(-c2cc(F)cc3[nH]ccc23)[nH]c(C(=O)O)c1-c1c(F)ccc2[nH]ccc12` [compound 243] had a Kd of less than 20 µM.
Consider `COc1ccc2[nH]ccc2c1-c1c(C(=O)O)[nH]c(-c2cc(F)cc3[nH]ccc23)c1C(C)C` [compound 244], for which the Kd was less than 20 µM.
Compound `CC(C)c1c(-c2cc(F)cc3[nH]ccc23)[nH]c(C(=O)O)c1-c1c(Cl)cnc2[nH]ccc12` [compound 245] came in with a Kd of less than 20 µM.
For `CC(C)c1c(-c2cc(F)cc3[nH]ccc23)[nH]c(C(=O)O)c1-c1c(F)cnc2[nH]ccc12` [compound 246], the Kd was less than 20 µM.
For the compound `COc1cnc2[nH]ccc2c1-c1c(C(=O)O)[nH]c(-c2cc(F)cc3[nH]ccc23)c1C(C)C` [compound 247], the Kd was less than 20 µM.
In the case of `CC(C)c1c(-c2cc(F)cc3[nH]ccc23)[nH]c(C(=O)O)c1-c1c(C(F)(F)F)cnc2[nH]ccc12` [compound 248] it was less than 20 µM.
On to `CC(C)c1c(-c2cc(F)cc3[nH]ccc23)[nH]c(C(=O)O)c1-c1ccnc2[nH]c(-c3cc[nH]n3)cc12` [compound 249], for which the Kd was less than 20 µM.
In turn, `CC(C)c1c(-c2cc(F)cc3[nH]ccc23)[nH]c(C(=O)O)c1-c1ccnc2[nH]c(-c3ccsc3)cc12` [compound 250] had a Kd of less than 20 µM.
In the case of `CC(C)c1c(-c2cc(F)cc3[nH]ccc23)[nH]c(C(=O)O)c1-c1ccnc2[nH]c(-c3ccccc3)cc12` [compound 251] it was less than 20 µM; in that of `COc1ccc(-c2cc3c(-c4c(C(=O)O)[nH]c(-c5cc(F)cc6[nH]ccc56)c4C(C)C)ccnc3[nH]2)cc1` [compound 252], less than 20 µM.
In the case of `CC(C)c1c(-c2cc(F)cc3[nH]ccc23)[nH]c(C(=O)O)c1-c1ccnc2[nH]c(-c3cccc(Cl)c3)cc12` [compound 253], the Kd is less than 20 µM.
In turn, `CC(C)c1c(-c2cc(F)cc3[nH]ccc23)[nH]c(C(=O)O)c1-c1ccnc2[nH]c(-c3ccccc3Cl)cc12` [compound 254] yielded a Kd of less than 20 µM.
In turn, `CC(C)c1c(-c2cc(F)cc3[nH]ccc23)[nH]c(C(=O)O)c1-c1ccnc2[nH]c(C3=CCNCC3)cc12` [compound 255] returned a Kd of less than 20 µM.
`CC(C)c1c(-c2cc(F)cc3[nH]ccc23)[nH]c(C(=O)O)c1-c1ccnc2[nH]c(C3=CCN(S(C)(=O)=O)CC3)cc12` [compound 256] gave a Kd of less than 20 µM.
The compound `CC(C)c1c(-c2cc(F)cc3[nH]ccc23)[nH]c(C(=O)O)c1-c1ccnc2[nH]c(C3=CCN(S(=O)(=O)N(C)C)CC3)cc12` [compound 257] displayed a Kd of less than 20 µM.
The result for `CC(C)c1c(-c2cc(F)cc3[nH]ccc23)[nH]c(C(=O)O)c1-c1cccc2[nH]c(-c3cc[nH]n3)cc12` [compound 258] reads less than 20 µM; that for `CC(C)c1c(-c2cc(F)cc3[nH]ccc23)[nH]c(C(=O)O)c1-c1cccc2[nH]c(-c3ccccc3)cc12` [compound 259], less than 20 µM; that for `CC(C)c1c(-c2cc(F)cc3[nH]ccc23)[nH]c(C(=O)O)c1-c1cccc2[nH]c(C(=O)Nc3ccccc3)cc12` [compound 260], less than 20 µM.
In turn, `CC(C)c1c(-c2cc(F)cc3[nH]ccc23)[nH]c(C(=O)O)c1-c1cccc2[nH]c(C(=O)Nc3nccs3)cc12` [compound 261] displayed a Kd of less than 20 µM.
The compound `CC(C)c1c(-c2cc(F)cc3[nH]ccc23)[nH]c(C(=O)O)c1-c1cccc2[nH]c(C(=O)NCc3nccs3)cc12` [compound 262] had a Kd of less than 20 µM.
In turn, `CC(C)c1c(-c2cc(F)cc3[nH]ccc23)[nH]c(C(=O)O)c1-c1cccc2c1ccn2CS(N)(=O)=O` [compound 263] showed a Kd of less than 20 µM.
Consider `CC(C)c1c(-c2cc(F)cc3[nH]ccc23)[nH]c(C(=O)O)c1-c1cccc2c1ccn2CS(C)(=O)=O` [compound 264], for which the Kd was less than 20 µM.
`CC(C)c1c(-c2cc(F)cc3[nH]ccc23)[nH]c(C(=O)O)c1-c1cccc2c1ccn2CCNS(C)(=O)=O` [compound 265] came in with a Kd of less than 20 µM.
As for `CC(C)c1c(-c2cc(F)cc3[nH]ccc23)[nH]c(C(=O)O)c1-c1cccc2c1ccn2CCS(N)(=O)=O` [compound 266], the Kd is less than 20 µM.
The compound `CC(C)c1c(-c2cc(F)cc3[nH]ccc23)[nH]c(C(=O)O)c1-c1cccc2c1ccn2CCS(C)(=O)=O` [compound 267] showed a Kd of less than 20 µM.
As to `CC(C)c1c(-c2cc(F)cc3[nH]ccc23)[nH]c(C(=O)O)c1-c1cccc2ncccc12` [compound 268], the Kd was less than 20 µM.
As for `CC(C)c1c(-c2cc(F)cc3[nH]ccc23)[nH]c(C(=O)O)c1-c1c2cc[nH]c2cc2[nH]ccc12` [compound 269], the Kd was less than 20 µM.
With `CC(C)c1c(-c2cccc3[nH]ccc23)c(C(=O)O)n2c1-c1cc(F)cc3ccn(c13)CC2` [compound 270], the Kd is less than 20 µM.
As for `CC(C)c1c(-c2cccc3[nH]ccc23)c(C(=O)O)n2c1-c1cc(F)cc3ccn(c13)[C@@H](C)C2` [compound 271], the Kd was less than 20 µM.
`CC(C)c1c(-c2cccc3[nH]ccc23)c(C(=O)O)n2c1-c1cc(F)cc3ccn(c13)[C@H](C)C2` [compound 272] registered a Kd of less than 20 µM.
Turning to `CC(C)c1c(-c2cccc3[nH]ccc23)c(C(=O)O)n2c1-c1cc(F)cc3ccn(c13)S(=O)(=O)C2` [compound 273], the Kd was less than 20 µM.
In turn, `CC(C)c1c(-c2cccc3[nH]ccc23)c(C(=O)O)n2c1-c1cc(F)cc3ccn(c13)C(=O)C2` [compound 274] returned a Kd of less than 20 µM.

For the origin of these results see patent publication US12466813B2, “PRC1 inhibitors and methods of treatment therewith” (The Regents of the University of Michigan, priority 2018, dated 2025).
